Values joined by “and” are separate entries in the source; they are usually repeats but may differ in a detail not shown here. Identical values can stand only once. Like-named read-outs stand apart in the source and are kept apart here.
Experiments:
NCI-H1568 cells = assay: Cell viability assay (CellTiter Glo) in NCI-H1568; type: cell-based, human; conditions: for EC50: Homo sapiens, NCI-H1568, […], read-out: EC50 cell proliferation (CellTiter Glo); for IC50: NCI-H1568, (18h), CellTiter Glo, individual replicates, read-out: NCI-H1568 (18h) CTG
Procedure: 500–2000 cells were seeded in white, clear bottom 96-well plates (Corning or Perkin Elmer) in 180–200 µl medium per well. The next day, compounds were added using a digital dispenser and a T0 sample was measured for reference. […], and viability (luminescence) was measured using CellTiter Glo or CellTiter Glo 2.0 (Promega) according to manufacturer’s instructions after equilibrating cells and reagents at room temperature and 10–20 min incubation time while shaking.

PBRM1BD5 = biological target: T1, PBRM1BD5 (Homo sapiens, UniProt Q86U86); assay: TR-FRET ternary complex affinity and cooperativity, PBRM1; type: binding; conditions: TR-FRET competition for PBRM1BD5, without VCB; mean ± SD; read-out: TR-FRET PBRM1BD EC50
T1 construct: GST (TEV site) (N); His6 (TEV site) (N, cleaved yes); made in house; host or cells: PBRM1^BD5: Escherichia coli BL21(DE3)
T1 sequence (Q86U86 645-766): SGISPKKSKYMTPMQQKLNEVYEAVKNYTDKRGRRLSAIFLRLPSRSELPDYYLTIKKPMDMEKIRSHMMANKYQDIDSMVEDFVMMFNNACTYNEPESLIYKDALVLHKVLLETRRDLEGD

[1] = biological target: T2, VCB: PROTAC: SMARCA2^BD ternary complex (Homo sapiens, UniProt P51531); assay: TR-FRET ternary complex affinity and cooperativity, SMARCA2; type: binding
T2 construct: P51531-2, residues 1373-1493 with additional N-terminal SM residues; GST (TEV site) (N); His6 (TEV site) (N, cleaved yes); made in house; host or cells: SMARCA2^BD: Escherichia coli BL21(DE3)
T2 sequence (P51531 with tags, fused parts or gaps isoform P51531-2): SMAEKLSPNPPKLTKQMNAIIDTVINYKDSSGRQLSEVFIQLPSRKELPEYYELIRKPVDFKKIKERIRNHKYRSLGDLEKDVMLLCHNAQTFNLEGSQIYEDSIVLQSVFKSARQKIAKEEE

[2] = biological target: VCB: PROTAC: SMARCA2^BD ternary complex (Homo sapiens, UniProt P40337+P51531); assay: as above; type: binding; design: P51531-2, residues 1373-1493 with additional N-terminal SM residues; GST (TEV site) (N); His6 (TEV site) (N, cleaved yes); made in house; host or cells: SMARCA2^BD: Escherichia coli BL21(DE3)
Sequence of VCB: PROTAC: SMARCA2^BD ternary complex (Homo sapiens, UniProt P40337+P51531) (P51531 with tags, fused parts or gaps isoform P51531-2): as above
Sequence of VCB: PROTAC: SMARCA2^BD ternary complex (Homo sapiens, UniProt P40337+P51531) (P40337 54-213): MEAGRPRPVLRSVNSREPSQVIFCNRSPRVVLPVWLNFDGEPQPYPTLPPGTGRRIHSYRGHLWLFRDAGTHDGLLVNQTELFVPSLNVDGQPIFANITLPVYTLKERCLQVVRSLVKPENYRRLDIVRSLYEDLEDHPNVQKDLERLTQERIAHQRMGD
Sequence of VCB: PROTAC: SMARCA2^BD ternary complex (Homo sapiens, UniProt P40337+P51531) (Q15369 17-112 partner): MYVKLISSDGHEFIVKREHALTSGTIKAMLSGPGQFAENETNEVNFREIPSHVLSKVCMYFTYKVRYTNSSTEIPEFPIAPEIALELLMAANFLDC
Sequence of VCB: PROTAC: SMARCA2^BD ternary complex (Homo sapiens, UniProt P40337+P51531) (Q15370 1-104 partner): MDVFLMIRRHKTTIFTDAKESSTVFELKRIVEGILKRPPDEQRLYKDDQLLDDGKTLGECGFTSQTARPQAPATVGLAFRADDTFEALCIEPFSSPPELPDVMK

[3] = biological target: T3, (Homo sapiens, UniProt P51532); assay: TR-FRET ternary complex affinity and cooperativity, SMARCA4; type: binding
T3 construct: P51532, residues 1448–1569 with additional N-terminal SM residues; GST (TEV site) (N); His6 (TEV site) (N, cleaved yes); made in house; host or cells: SMARCA4^BD: Escherichia coli BL21(DE3)
T3 sequence (P51532 1448-1569): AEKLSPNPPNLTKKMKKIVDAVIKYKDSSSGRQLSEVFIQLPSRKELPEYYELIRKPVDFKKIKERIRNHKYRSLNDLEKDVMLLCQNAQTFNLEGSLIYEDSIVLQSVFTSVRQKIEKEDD

PBRM1 BD = biological target: T4, PBRM1 BD (Homo sapiens, UniProt Q86U86); assay: TR-FRET binary and ternary (PROTAC + VCB) affinity, PBRM1 bromodomain; type: binding; conditions: individual replicates
T4 construct: GST (TEV site) (N); made in house; host or cells: Escherichia coli BL21(DE3)

[4] = biological target: VCB: PROTAC: SMARCA4^BD ternary complex (Homo sapiens, UniProt P40337+P51532); assay: TR-FRET ternary complex affinity and cooperativity, SMARCA4; type: binding; design: P51532, residues 1448–1569 with additional N-terminal SM residues; GST (TEV site) (N); His6 (TEV site) (N, cleaved yes); made in house; host or cells: SMARCA4^BD: Escherichia coli BL21(DE3)
Sequence of VCB: PROTAC: SMARCA4^BD ternary complex (P51532 1448-1569): as above
Sequence of VCB: PROTAC: SMARCA4^BD ternary complex (P40337 54-213): as the sequence (P40337 54-213) above
Sequence of VCB: PROTAC: SMARCA4^BD ternary complex (Q15369 17-112 partner): as the sequence (Q15369 17-112 partner) above
Sequence of VCB: PROTAC: SMARCA4^BD ternary complex (Q15370 1-104 partner): as the sequence (Q15370 1-104 partner) above

SMARCA2 = SMARCA2 (Homo sapiens, UniProt P51531); assay: Imaging-based SMARCA2 protein assay in RKO cells; type: cell-based; design: endogenous in cells; host or cells: RKO, NCI-H1568, A549, HCT116, LU99, HCC-364, HCT-15, HCC4006, SK-N-AS; conditions: individual replicates
Sequence of SMARCA2 (P51531 whole entry): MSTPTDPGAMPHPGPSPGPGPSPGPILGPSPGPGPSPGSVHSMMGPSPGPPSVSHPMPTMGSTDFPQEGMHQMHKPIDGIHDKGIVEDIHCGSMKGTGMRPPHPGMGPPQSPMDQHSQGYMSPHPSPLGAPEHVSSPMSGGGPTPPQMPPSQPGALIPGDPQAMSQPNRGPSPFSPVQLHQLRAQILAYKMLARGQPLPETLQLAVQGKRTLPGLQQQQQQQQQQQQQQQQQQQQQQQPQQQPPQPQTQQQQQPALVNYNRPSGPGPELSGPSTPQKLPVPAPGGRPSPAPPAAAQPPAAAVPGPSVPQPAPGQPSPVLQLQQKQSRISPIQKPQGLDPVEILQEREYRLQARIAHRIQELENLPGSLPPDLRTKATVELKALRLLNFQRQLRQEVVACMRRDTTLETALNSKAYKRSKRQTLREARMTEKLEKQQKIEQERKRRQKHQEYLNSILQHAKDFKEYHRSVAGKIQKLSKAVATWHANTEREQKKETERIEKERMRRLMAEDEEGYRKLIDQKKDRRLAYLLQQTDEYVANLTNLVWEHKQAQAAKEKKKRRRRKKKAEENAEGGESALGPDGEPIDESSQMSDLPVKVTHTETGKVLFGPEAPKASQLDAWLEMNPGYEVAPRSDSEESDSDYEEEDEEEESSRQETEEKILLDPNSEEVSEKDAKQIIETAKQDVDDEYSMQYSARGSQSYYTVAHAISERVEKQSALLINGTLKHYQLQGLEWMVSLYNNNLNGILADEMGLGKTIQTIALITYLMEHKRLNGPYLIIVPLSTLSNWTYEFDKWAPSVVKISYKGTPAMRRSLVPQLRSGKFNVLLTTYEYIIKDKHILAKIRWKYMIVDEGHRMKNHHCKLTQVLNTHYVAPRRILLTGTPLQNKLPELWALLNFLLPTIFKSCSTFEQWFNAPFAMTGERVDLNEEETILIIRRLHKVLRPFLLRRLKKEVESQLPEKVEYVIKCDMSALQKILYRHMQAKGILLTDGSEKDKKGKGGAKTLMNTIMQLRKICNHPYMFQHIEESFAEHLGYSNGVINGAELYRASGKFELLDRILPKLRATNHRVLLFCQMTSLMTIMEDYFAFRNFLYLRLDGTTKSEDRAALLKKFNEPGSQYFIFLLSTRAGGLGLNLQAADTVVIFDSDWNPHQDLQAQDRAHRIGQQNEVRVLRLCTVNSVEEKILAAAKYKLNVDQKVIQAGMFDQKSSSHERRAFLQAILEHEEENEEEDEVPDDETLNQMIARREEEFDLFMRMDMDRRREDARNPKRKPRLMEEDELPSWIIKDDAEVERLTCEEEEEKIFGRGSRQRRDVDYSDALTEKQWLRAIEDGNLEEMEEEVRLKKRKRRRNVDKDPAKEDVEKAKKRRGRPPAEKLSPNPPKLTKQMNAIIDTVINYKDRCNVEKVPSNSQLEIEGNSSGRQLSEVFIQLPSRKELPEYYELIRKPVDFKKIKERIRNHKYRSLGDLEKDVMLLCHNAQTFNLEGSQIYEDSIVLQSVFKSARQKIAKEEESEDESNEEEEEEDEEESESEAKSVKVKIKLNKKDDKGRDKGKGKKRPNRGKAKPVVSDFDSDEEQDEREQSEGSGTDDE
Procedure: 1250 cells per well in 60 µl medium were plated in flat bottom, poly-lysin coated 384-well plates (CellCarrier Ultra, Perkin Elmer). The next day, test compounds (10 µl of serial dilutions) and DMSO controls were diluted in DMEM medium such that the final DMSO content was <1% or were added using an ultrasound dispensing system. 4 wells were reserved for a background measurement. […] After aspirating the fixing solution, the cells were washed once with 25 µl PBS. 25 µl of blocking buffer (10% goat serum in PBS) was added and cells were incubated for 30 min, then washed once with PBS. […] Cells were again washed once with PBS. […] The cell layer was then washed once with 25 µl PBS, the wells were filled with 25 µl PBS and the plates were sealed with an adhesive sheet. They were then imaged on the Opera Phoenix (mean intensity in the nucleus). […] EC50 values were computed using a 4-parametric logistic model.

[5] = TR-FRET competition for SMARCA2BD, without VCB, mean ± SD, read-out: TR-FRET SMARCA2BD EC50
[6] = binary, PROTAC alone, individual replicates, read-out: SMARCA2 BD EC50
[7] = PROTAC + VCB, individual replicates, read-out: Ternary SMARCA2 BD EC50 (PROTAC + VCB)
[8] = TR-FRET competition for SMARCA2BD, + VCB, mean ± SD, read-out: TR-FRET Ternary SMARCA2BD EC50 (PROTAC + VCB)
[9] = TR-FRET competition for SMARCA4BD, without VCB, mean ± SD, read-out: TR-FRET SMARCA4BD EC50
[10] = binary, PROTAC alone, individual replicates, read-out: SMARCA4 BD EC50
[11] = PROTAC + VCB, read-out: Ternary PBRM1 BD EC50 (PROTAC + VCB)
[12] = binary, PROTAC alone, read-out: PBRM1 EC50
[13] = PROTAC + VCB, individual replicates, read-out: Ternary SMARCA4 BD EC50 (PROTAC + VCB)
[14] = TR-FRET competition for SMARCA4BD, + VCB, mean ± SD, read-out: TR-FRET Ternary SMARCA4BD EC50 (PROTAC + VCB)
[15] = 4h, read-out: RKO (4h) SMARCA2 DC50
[16] = 18h, read-out: RKO (18h) SMARCA2 DC50

SMILES | EC50 (NCI-H1568 cells) | IC50 (NCI-H1568 cells) | EC50 (PBRM1BD5) | EC50 [1, 5] | EC50 [1, 6] | EC50 [2, 7] | EC50 [2, 8] | EC50 [3, 9] | EC50 [3, 10] | EC50 (PBRM1 BD; [11]) | EC50 (PBRM1 BD; [12]) | EC50 [4, 13] | EC50 [4, 14] | DC50 (SMARCA2; [15]) | DC50 (SMARCA2; [16])
Cc1ncsc1-c1ccc([C@H](COC(C)CN2CCC(c3ccc4c(c3)n(C3CCCC3)c3nc(=O)c5c(Br)cccc5n43)CC2)NC(=O)[C@@H]2C[C@@H](O)CN2C(=O)[C@@H](NC(=O)C2(F)CC2)C(C)(C)C)cc1 (stereo partly drawn) [compound 9] | 45 ± 51 nM | 48.2 nM and 116 nM and 16.6 nM | 34 ± 4 nM | 143 ± 27 nM | 132 nM and 149 nM and 140 nM (2×) and 172 nM and 134 nM and 115 nM and 202 nM and 128 nM | 20.6 nM and 18 nM and 20.2 nM and 22.8 nM and 25.6 nM and 25.2 nM and 34 nM and 21.7 nM and 14.5 nM and 19.9 nM and 18.7 nM | 21 ± 5 nM | 265 ± 34 nM | 228 nM and 295 nM and 276 nM | 6.04 nM and 5.66 nM and 5.49 nM and 5.75 nM and 6.81 nM and 13.2 nM and 4.82 nM | 31.7 nM and 35 nM and 40.8 nM and 29.8 nM and 31 nM | 88.4 nM and 113 nM and 133 nM and 114 nM and 84.3 nM | 105 ± 20 nM | 11.4 nM and 10.4 nM and 9.77 nM and 18.8 nM | 4.73 nM and 4.97 nM and 4.9 nM and 3.53 nM
Cc1ncsc1-c1ccc([C@H](COC(C)CN2CCC(c3ccc4c(c3)n(C3CCCC3)c3nc(=O)c5c(Br)cccc5n43)CC2)NC(=O)[C@@H]2C[C@@H](O)CN2C(=O)[C@@H](NC(=O)C2(N(C)C)CC2)C(C)(C)C)cc1 (stereo partly drawn) [compound 10] | 16 ± 7 nM | 21.5 nM and 20 nM and 8.75 nM | 31 ± 1 nM | 150 ± 52 nM | 120 nM and 130 nM and 128 nM and 228 nM and 217 nM and 116 nM | 13.9 nM and 16.3 nM and 16.6 nM and 37.3 nM and 12.6 nM and 9.3 nM and 12.5 nM | 15 ± 9 nM | 191 ± 85 nM | 108 nM and 250 nM and 259 nM | 6.43 nM and 7.96 nM and 8.03 nM and 9.7 nM | 30.5 nM and 31.7 nM and 30 nM | 69.6 nM and 88.2 nM and 77.2 nM and 49.4 nM | 70 ± 16 nM | 8.19 nM and 6.54 nM and 2.93 nM and 10.6 nM | 1.26 nM and 3.06 nM and 6.17 nM
